Like-named read-outs stand apart in the source and are kept apart here.
Legend:
[1] = target: T1, COX-1 (Mus musculus, UniProt P22437); settings: Table 1, reported by reference; cited from earlier work
T1 construct: endogenous in cells; host or cells: J774 murine monocyte/macrophage cell line
T1 sequence (P22437 27-602): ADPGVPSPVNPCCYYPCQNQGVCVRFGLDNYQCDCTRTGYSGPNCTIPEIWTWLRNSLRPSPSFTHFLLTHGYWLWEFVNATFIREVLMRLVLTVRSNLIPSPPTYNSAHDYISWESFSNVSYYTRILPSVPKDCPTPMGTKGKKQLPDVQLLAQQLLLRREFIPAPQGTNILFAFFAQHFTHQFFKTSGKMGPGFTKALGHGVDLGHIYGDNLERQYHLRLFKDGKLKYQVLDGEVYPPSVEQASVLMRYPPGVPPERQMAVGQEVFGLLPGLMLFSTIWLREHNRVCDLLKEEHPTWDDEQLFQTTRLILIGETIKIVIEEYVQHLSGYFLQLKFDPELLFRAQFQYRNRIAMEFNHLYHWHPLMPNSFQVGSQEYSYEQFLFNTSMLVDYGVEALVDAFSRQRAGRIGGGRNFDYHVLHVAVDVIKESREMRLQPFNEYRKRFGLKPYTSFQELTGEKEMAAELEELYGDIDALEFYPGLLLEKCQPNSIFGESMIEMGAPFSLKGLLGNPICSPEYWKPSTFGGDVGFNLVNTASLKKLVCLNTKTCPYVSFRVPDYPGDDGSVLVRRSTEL

[2] = target: T2, COX-2 (Mus musculus, UniProt Q05769); settings: Table 1, reported by reference; cited from earlier work
T2 construct: lipopolysaccharide (LPS, 10 μg/mL) to induce COX-2; endogenous in cells; host or cells: J774 murine monocyte/macrophage cell line, LPS-stimulated
T2 sequence (Q05769 18-604): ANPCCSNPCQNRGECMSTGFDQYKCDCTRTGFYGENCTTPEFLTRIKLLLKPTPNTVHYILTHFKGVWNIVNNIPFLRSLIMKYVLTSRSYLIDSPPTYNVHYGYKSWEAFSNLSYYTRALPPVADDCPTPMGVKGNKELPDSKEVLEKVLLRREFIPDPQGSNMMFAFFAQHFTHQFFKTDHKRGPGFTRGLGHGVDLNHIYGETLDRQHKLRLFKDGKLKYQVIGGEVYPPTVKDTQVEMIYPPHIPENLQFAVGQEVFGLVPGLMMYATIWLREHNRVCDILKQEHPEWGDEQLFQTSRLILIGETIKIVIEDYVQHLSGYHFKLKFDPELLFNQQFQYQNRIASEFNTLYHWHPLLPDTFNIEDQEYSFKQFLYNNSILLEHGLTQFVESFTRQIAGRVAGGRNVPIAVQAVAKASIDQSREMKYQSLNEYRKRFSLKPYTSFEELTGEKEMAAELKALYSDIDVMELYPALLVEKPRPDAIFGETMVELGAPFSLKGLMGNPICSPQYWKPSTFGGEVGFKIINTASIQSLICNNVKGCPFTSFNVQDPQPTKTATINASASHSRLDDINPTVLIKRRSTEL

[3] = target: T2, COX-2; assay: Assessment of COX-2 activity in LPS-stimulated J774 cells (PGE2 radioimmunoassay); type: cell-based, murine
Description: Cells were stimulated for 24 h with E. coli lipopolysaccharide (LPS, 10 μg/mL) to induce COX-2, in the absence or presence of test compounds, at the concentrations previously reported. The supernatants were collected for the measurement of PGE2 by radioimmunoassay.
(§1) Analysis. Throughout the time the experiments lasted, triplicate wells were used for the various conditions of treatment. Results are expressed as the mean, for 3 experiments, of the % inhibition of PGE2 production by test compounds with respect to control samples. Data fit was obtained using the sigmoidal dose-response equation (variable slope). The IC50 were calculated by GraphPad Instat program (GraphPad software).

[4] = target: T1, COX-1; assay: Assessment of COX-1 activity in J774 cells (arachidonic acid, PGE2 radioimmunoassay); type: cell-based, murine; settings: Table 8, Formula I-c
Description: Stock solutions of the reference standard or of the test compounds were prepared in dimethyl sulphoxide, and an equivalent amount of dimethyl sulphoxide was included in control samples. At the end of the incubation the supernatants were collected for the measurement of PGE2 by radioimmunoassay.
as §1

[5] = test system: rat model of edema induced by carragenine; assay: Carrageenan-induced paw edema; type: in vivo; settings: 1 h, 60 min, 20 mg/Kg, read-out: Edema inhibition 60 min, MPE
Description: (§2) Male Swiss albino mice (23-25 g) and Sprague Dawley or Wistar rats (150-200 g) were used. The animals were fed a standard laboratory diet and tap water ad libitum and kept at 23±1° C. with a 12 h light/dark cycle, light on at 7 a.m.
Rats paw volumes were measured using a plethysmometer. Rats received the investigated compounds 4 hours after a 0.1-ml injection of 1.0% carrageenan in the right hind paw. Five hours after the injection of carrageenan (i.e. 1 hour after the administration of the investigated compound), the paw volume of the right hind paw was measured and compared with saline/carrageenan-treated controls. Results are reported as maximum percent effect (MPE), see below for detailed explanation.

[6] = test system: rat model of hyperalgesia induced by carragenine; assay: Paw pressure test, hyperalgesia induced by carragenine; type: in vivo; settings: 20 mg/Kg
Description: as §2
The nociceptive threshold in the rat was determined with an analgesimeter, according to the method described by Leighton et al, G. E.; Br. J. Pharmacol. 1988, 93, 553-560. Threshold pressure was measured before and 30, 60 and 120 min after treatment. An arbitrary cut-off value of 250 g was adopted. In order to induce an inflammatory process in the rat paw carrageenan (0.1 ml, 1%) was administered i.p. 4 h before test.

[7] = test system: rat model of hyperalgesia induced by Zymosan; assay: Zymosan-induced hyperalgesia (Randal-Selitto); type: in vivo; settings: oral, 4 mg/Kg
Description: as §2
(§3) The interplantar injection of Zymosan-induced mechanical hyperalgesia may be used as a model of inflammatory pain (Meller, Neuropharmacology, 1994, 33, 1471-1478). In this model, typically a male Sprague-Dawely or Wistar rat (200-250 g) receives an interplantar injection of 4 mg/100 μl zymosan into one hind paw. A marked inflammation occurs in this hind paw. Drugs are administered orally for evaluation of efficacy, 30 min. before the inflammatory insult. The hyperalgesia induced by zymosan administration was evaluated using the Randal-Selitto method (Arch. Int. Pharmacodyn., 1957, 111, 409). The quantitation of the analgesic effect is achieved by an analgesimeter, which consist in applying to the inflamed paw an increasing weight (from 130-140 g up to 500 g). The difference in the mechanical pain threshold between the basal value (generally 230-250 g) and the one tolerated by the animals treated with the drug, determined 4 hours after the inflammatory challenge, is defined as mechanical hyperalgesia.
Mechanical hyperalgesia is expressed for the compounds of the invention as maximum percent effect (MPE) which represents the difference (%) in pain threshold between the animals treated with the drug and the controls that received only the vehicle.
Results are reported as MPE (reduction of the nociceptive effect, due to paw loading with increasing weight, in comparison to controls). 100% MPE means that the animal treated with the compound and Zymosan can tolerate the same stimulus (weight) as the control animals which have not received Zymosan treatment. MPE higher than 100% mean that the animal treated with the compound and Zymosan can tolerate stimuli (weight) higher than the control animals, which has not received Zymosan treatment (hypoalgesia).

[8] = test system: rat model of edema induced by Zymosan; assay: Zymosan-induced paw edema; type: in vivo; settings: oral, 4 mg/Kg
Description: as §2, §3
In vivo anti-inflammatory effect exerted by the compounds of the invention can be assessed in the same Zymosan induced inflammation test described above, by measuring the volume of the oedema induced by the inflammatory agent. The oedema was evaluated as the increase in the volume of the Zymosan injected paw within a time of 0-2 hrs. The measurements of the variation of the oedema volume of the paw were recorded using hydroplethysmometer. Results are expressed as MPE, maximum percent effect, that in this case represents the reduction (%) in the oedema of treated animals in comparison to controls (animals treated with Zymosan, which received only the vehicle).

[9] = Table 8, Formula I-c, read-out: COX-2 IC50
[10] = 0.5 h, 30 min, read-out: Analgesia 30 min MPE
[11] = 1 h, 60 min, read-out: Analgesia 60 min MPE
[12] = read-out: in vitro COX-2 inhibitory potency IC50

With Cc1c(CC(=O)O)cc(-c2ccc(S(C)(=O)=O)cc2)n1-c1ccccc1 [Compound 1a, 2-[2-methyl-5-(4-methylsulphonyl)phenyl-1-phenyl-1H-pyrrol-3-yl]acetic acid] as the compound, how does the IC50 [1] read?
The IC50 was > 100 µM.

What about the “COX-1/COX-2 Selectivity Index (IC50 ratio)” value [2] of the same compound?
The value was >100.

Which results are given for CNC(=O)Cc1cc(-c2ccc(S(C)(=O)=O)cc2)n(-c2ccccc2)c1C [Example 13, N-Methyl-[2-methyl-5-(4-methylsulphonyl)phenyl-1-phenyl-1H-pyrrol-3-yl]acetamide]?
IC50 [3, 9]: 1 µM; IC50 [4]: > 100 µM; melting point: 178 to 181 °C

Which melting point does the source give for CCCNC(=O)NCCc1cc(-c2ccc(S(C)(=O)=O)cc2)n(-c2ccccc2)c1C [Example 39, N-[2-(2-Methyl-5-(4-(methylsulphonyl)phenyl)-1-phenyl-1H-pyrrol-3-yl)ethyl]-3-propyl urea] here?
The melting point was 157 to 160 °C.

With CCCCOC(=O)Cc1cc(-c2ccc(S(C)(=O)=O)cc2)n(-c2ccccc2)c1C [Example 6, n-Butyl[1-phenyl-2-methyl-5-(4-methylsulphonyl)phenyl-1H-pyrrol-3-yl]acetate] as the compound, how does the “COX-1/COX-2 Selectivity Index (IC50 ratio)” value ([3]; Table 2, Formula Ia) read?
The value was >7100.

What about the melting point of the same compound?
The melting point was 124 °C.

With Cc1ccc(-n2c(-c3ccc(S(C)(=O)=O)cc3)cc(CC(=O)O)c2C)cc1 [Compound 2a, 2-[1-(4-methyl)phenyl-2-methyl-5-(4-methylsulphonyl)phenyl-1H-pyrrol-3-yl]acetic acid] as the compound, how does the IC50 [1] read?
Its IC50 is > 100 µM.

What about the “COX-1/COX-2 Selectivity Index (IC50 ratio)” value [2] of the same compound?
Its value is >200.

With CCOC(=O)C(O)c1cc(-c2ccc(S(C)(=O)=O)cc2)n(-c2ccccc2)c1C (racemic) [Example 7, Ethyl[2-hydroxy-2-[2-methyl-5-(4-methylsulphonyl)phenyl-1-phenyl-1H-pyrrol-3-yl]]acetate] as the compound, how does the melting point read?
Its melting point is 145 °C.

With CCOC(=O)Cc1cc(-c2ccc(S(C)(=O)=O)cc2)n(-c2ccc(C)cc2)c1C [Compound 2b, Ethyl 2-[1-(4-methyl)phenyl-2-methyl-5-(4-methylsulphonyl)phenyl-1H-pyrrol-3-yl]acetate] as the compound, how does the IC50 [1] read?
Its IC50 is > 100 µM.

And the “COX-1/COX-2 Selectivity Index (IC50 ratio)” value [2]?
Its value is >200.

Which results are given for Cc1c(CC(=O)O)cc(-c2ccc(S(C)(=O)=O)cc2)n1-c1ccc(C(F)(F)F)cc1 [Compound 3a]?
IC50 [1]: > 100 µM; COX-1/COX-2 Selectivity Index (IC50 ratio) [2]: >900

What does the source list for Cc1c(CC(=O)N(C)C)cc(-c2ccc(S(C)(=O)=O)cc2)n1-c1ccccc1 [Example 15, N,N-Dimethyl-[2-methyl-5-(4-methylsulphonyl)phenyl-1-phenyl-1H-pyrrol-3-yl]acetamide]?
IC50 [3, 9]: 0.58 µM; IC50 [4]: > 100 µM; melting point: 175 to 179 °C

Which results are given for CCOC(=O)Cc1cc(-c2ccc(S(C)(=O)=O)cc2)n(-c2ccccc2)c1C [Compound 1b, Ethyl 2-[2-methyl-5-(4-methylsulphonyl)phenyl-1-phenyl-1H-pyrrol-3-yl]acetate, reference compound]?
IC50 [1]: > 100 µM; inhibition in vivo at 20 mg/kg [5]: 10%; inhibition in vivo at 20 mg/kg [6, 10]: 18%; inhibition in vivo at 20 mg/kg [6, 11]: 30%; COX-1/COX-2 Selectivity Index (IC50 ratio) [2]: >2500

Which results are given for CCOC(=O)Cc1cc(-c2ccc(S(C)(=O)=O)cc2)n(-c2ccc(F)c(F)c2)c1C [Compound 5b, Ethyl 2-[1-(3,4-difluoro)phenyl-2-methyl-5-(4-methylsulphonyl)phenyl-1H-pyrrol-3-yl]acetate, reference compound]?
Analgesia 0-2 hrs MPE [7]: 9%; Analgesia 0-6 hrs MPE [7]: 12%; selectivity [3]: > 5000; IC50 [3, 12]: 0.02 µM; Edema 0-2 hrs MPE [8]: 8%; Edema 0-6 hrs MPE [8]: 6%; inhibition in vivo at 20 mg/kg [5]: 30%; inhibition in vivo at 20 mg/kg [6, 10]: 30%; inhibition in vivo at 20 mg/kg [6, 11]: 36%

Which selectivity [3] does the source give for CCOC(=O)Cc1cc(-c2ccc(S(C)(=O)=O)cc2)n(-c2cccc(F)c2)c1C [Compound 4b, Ethyl 2-[1-(3-fluoro)phenyl-2-methyl-5-(4-methylsulphonyl)phenyl-1H-pyrrol-3-yl]acetate, reference compound] here?
Its selectivity is > 10000.

What about the IC50 [3, 12] of the same compound?
The IC50 was 0.01 µM.

What about the inhibition in vivo at 20 mg/kg [5] of the same compound?
Its inhibition in vivo at 20 mg/kg is 30%.

And the inhibition in vivo at 20 mg/kg [6, 10]?
The inhibition in vivo at 20 mg/kg was 28%.

And the inhibition in vivo at 20 mg/kg [6, 11]?
The inhibition in vivo at 20 mg/kg was 40%.

Which melting point does the source give for CCOC(=O)C(O)c1cc(-c2ccc(S(C)(=O)=O)cc2)n(-c2ccc(OC)cc2)c1C (racemic) [Example 8, Ethyl[2-hydroxy-2-[1-(4-methoxy)phenyl-2-methyl-5-(4-methylsulphonyl)phenyl-1H-pyrrol-3-yl]]acetate] here?
The melting point was 130 °C.

Which results are given for CCOC(=O)Cc1cc(-c2ccc(S(C)(=O)=O)cc2)n(-c2ccc(C(F)(F)F)cc2)c1C [Compound 3b, Ethyl 2-[2-methyl-5-(4-methylsulphonyl)phenyl-1-(4-trifluoromethyl)phenyl-1H-pyrrol-3-yl]acetate]?
IC50 [1]: > 100 µM; COX-1/COX-2 Selectivity Index (IC50 ratio) [2]: >1600

Reference: patent US7906551B2 (Rottapharm S.p.A., priority 2006, dated 2011)
